Where a name gives a salt, the structure may show the parent alone.

The subject of experiment [1] is bronchoconstriction caused by 100 μmol/kg of histamine. In words: Histamine-induced bronchoconstriction test (Konzett and Rossler), intraduodenal (i.d.) administration. The experiment is classed as in vivo, guinea pigs. The following applies: for ED50: Cavia porcellus; for ED50, inhibition of histamine-induced bronchoconstriction, t = 20': 20 min. An excerpt: (§1) Furthermore, the antihistaminic properties were studied in guinea pigs by the bronchoconstriction test performed according to the method of H. Konzett and R. Rossler (Arch. Exp. Path. Pharmak.--Naunym Schmiedeberg - 195, 71-74, 1940).
(§2) The products of the invention were studied in this test after administration in solution or in suspension via the intravenous and intraduodenal routes, and also in powder form via the intranasal route.
(§3) Irrespective of the administration route, the preparation of the animals employed in the test consists in first anesthetizing male guinea pigs weighing 350 to 400 g by intraperitoneal (i.p.) injection of a sterile and isotonic solution containing 25% (w/v.) of ethyl carbamate on the basis of 6.0 ml/kg, and in then fitting the animals with a tracheal cannula to permit measurement of the pulmonary pressure, a cannula in the right jugular vein for the intravenous (i.v.) administration of solution, and also a cannula in the left carotid artery for qualitative observation of the blood pressure.
(§4) The animals are then connected to a pump (Harvard, ref. 50-1718) in order to maintain an artificial ventilation at a frequency of 60 insufflations per minute; the intratracheal pressure is recorded by an assembly comprising a transducer, an amplifier and a recorder (Gould, respective refs.: PLOEZ, 13-4615-50 and 8188-G4400-06).
(§5) Fitted in this way, the animals are left undisturbed for 10 minutes before the beginning of the actual experiment, which is carried out in different ways according to the administration route envisaged.
In base form, the test products are suspended in a solution containing 1% w/v of carboxymethylcellulose (CMC), and, in salt form, they are dissolved in an isotonic solution before being administered via a cannula whose end is placed in the animal's duodenum.
The time schedule for the successive administrations of histamine via the i.v. route and that for the test solution via the i.d. route are identical to that described above in a).
(§6) - Calculation and expression of the results:
(§7) For each administration route and for each time of administration of histamine, the activity of the products is expressed as the percentage change in amplitude of bronchoconstriction, calculated relative to that produced by the "control" administration of histamine which precedes the administration of the test product. The % change is calculated according to the formula: [formula] in which: Bc(tx) represents the amplitude of the bronchoconstriction in mm at time x,
(§8) Bo(tx) the amplitude of the base-line respiration in mm at time x,
(§9) Bc(to) and Bo(to) the corresponding amplitudes in mm on receipt of the "control" administration of histamine which precedes that of the test product.
(§10) The inhibitory activity of the test products on histamine-induced bronchoconstriction is expressed at different times of the studies as their ED50, which is the effective dose of product, expressed in μmol/kg, capable of inhibiting 50% of the histamine-induced bronchoconstriction at the time in question.
(§11) Failing this expression, the results are expressed as a % change at the time in question and for a given concentration of the test product. Under these conditions, a positive percentage corresponds to a potentiating effect on bronchoconstriction and, conversely, a negative percentage to an inhibitory effect.
(§12) Statistical analyses of the results were carried out by the Student t test. A value of p<0.05 is considered significant.
(§13) The compounds of the invention described in Examples 1 and 2 were employed in these tests. In addition, as a comparative product for the eutomer of Example 1, the racemic (R,S) compound corresponding to it, and which is described and prepared in Example 7 of U.S. Pat. No. 4,994,617, was employed. […]

Experiment [2] shares this test system. In words: Histamine-induced bronchoconstriction test (Konzett and Rossler), i.v. administration. The experiment is classed as in vivo, guinea pigs. The note with it: for ED50: Cavia porcellus, iv.
Text: as §1, §2, §3, §4, §5
In base form, the test products are dissolved in an isotonic solution (0.9% NaCl) containing 10% (v/v) of Transcutol (R). Dilutions are performed by adding isotonic solution. In salt, in particular hydrochloride, form, the solutions are prepared in the isotonic solution.
The treatment of the animals consists of a series of administrations of histamine dihydrochloride solution on the basis of 100 μmol/kg before and after treatment with the solution of test product, which is carried out according to the following time schedule:
t=-20 minutes - histamine (100 μmol/kg)
t=-10 minutes - ditto control
t=0 - injection of the test product
t=+10 minutes - histamine (100 μmol/kg)
as §6, §7, §8, §9, §10, §11, §12, §13

The test system of experiment [3] is bronchoconstriction caused by ovalbumin in the sensitized animal. Put plainly: Inhibition of ovalbumin-induced anaphylactic bronchoconstriction in sensitized guinea pigs, oral. The experiment is classed as in vivo. The following applies: Cavia porcellus, 1 h, intratracheal pressure after 60 minutes, read-out: ED50 inhibiting 50% of ovalbumin-induced bronchoconstriction. As for the experimental part:
The technique performed consists in previously sensitizing guinea pigs weighing 250 to 300 g by two intraperitoneal injections, separated by an interval of 24 hours, of 0.5 ml of a sterile suspension of physiological saline (0.9% NaCl) containing 20 μg of ovalbumin (Grade V; Sigma) and 100 mg of aluminum hydroxide Al(OH)3. At the same time, unsensitized control animals are treated with two injections of suspension not containing ovalbumin. The actual experiment is performed after a period needed for the sensitization of the animals, which is between 14 and 21 days. It is generally arrived at after 18 days, and consists in first administering increasing quantities of the test product in solution in water orally to groups of 5 animals, on the basis of 0.5 to 1.0 ml per animal, corresponding to doses of 1 to 10 μmol/kg of product. The animals are then anesthetized 50 minutes after this administration by an intraperitoneal injection of a solution of urethane. […] After 60 minutes, the intratracheal pressure measured in mm of Hg is determined for each animal of the test groups and those of the control group. These measurements enable the extent of the inhibition of bronchoconstriction produced by the test product to be determined. […]

[4] abbreviates: 0.5 h, t = 30', read-out: ED50, inhibition of histamine-induced bronchoconstriction, t = 30'.
The mark [5] stands for this setting: 40 min, t = 40', read-out: ED50, inhibition of histamine-induced bronchoconstriction, t = 40'.
The mark [6] stands for this setting: 50 min, t = 50', read-out: ED50, inhibition of histamine-induced bronchoconstriction, t = 50'.
The mark [7] stands for this setting: 1 h, t = 60', read-out: ED50, inhibition of histamine-induced bronchoconstriction, t = 60'.
Setting [8] is: 10 min, t = 10', read-out: ED50, inhibition of histamine-induced bronchoconstriction, t = 10'.

On to `C=CCN(C)[C@](C)(CO)Cc1ccc(Cl)c(Cl)c1` [Example 2, base, (S)-(+)-N-allyl-2-methylamino-2-(3,4-dichlorobenzyl)-1-propanol], for which the ED50 in experiment [1] (setting [4]) turned out to be 0.59 µmol/kg; in experiment [1] (setting [5]), 0.65 µmol/kg; in experiment [1] (setting [6]) it was 0.63 µmol/kg; in experiment [1] (setting [7]), 0.62 µmol/kg; in experiment [2] (setting [8]) it was 1.27 µmol/kg; in experiment [2] (20 min, t = 20', read-out: ED50, inhibition of histamine-induced bronchoconstriction, t = 20'), 0.93 µmol/kg. In addition, the ED50 worked out at 0.74 µmol/kg in experiment [2] (setting [4]), 0.96 µmol/kg in experiment [2] (setting [5]), 1.01 µmol/kg in experiment [2] (setting [6]) and 0.76 µmol/kg in experiment [2] (setting [7]). Further, the “ED50, inhibition of histamine-induced bronchoconstriction, t = 20'” value in experiment [1] came out at 1.45 µmol/kg.

As for `C=CCN(C)[C@](C)(CO)Cc1ccc(Cl)c(Cl)c1` [Example 2, hydrochloride, (S)-(+)-N-allyl-2-methylamino-2-(3,4-dichlorobenzyl)-1-propanol], the ED50 in experiment [1] (setting [8]) was determined as 1.59 µmol/kg; in experiment [3] it was 1.84 µmol/kg. The “ED50, inhibition of histamine-induced bronchoconstriction, t = 20'” value came out at 0.42 µmol/kg in experiment [1] and 0.70 µmol/kg in experiment [2] (t = 20', 20 min). Also, the “ED50, inhibition of histamine-induced bronchoconstriction, t = 30'” value in experiment [1] (t = 30', 30 min) came out at 0.33 µmol/kg; in experiment [2] (t = 30', 30 min), 0.58 µmol/kg. Further, the “ED50, inhibition of histamine-induced bronchoconstriction, t = 40'” value in experiment [1] (t = 40', 40 min) stood at 0.48 µmol/kg; in experiment [2] (t = 40', 40 min), 0.57 µmol/kg. In addition, the “ED50, inhibition of histamine-induced bronchoconstriction, t = 50'” value in experiment [1] (t = 50', 50 min) amounted to 0.51 µmol/kg; in experiment [2] (t = 50', 50 min), 0.51 µmol/kg. Moreover, the “ED50, inhibition of histamine-induced bronchoconstriction, t = 60'” value is 0.56 µmol/kg in experiment [1] (t = 60', 60 min) and 0.53 µmol/kg in experiment [2] (t = 60', 60 min). For the same molecule, in experiment [2] (t = 10', 10 min), the “ED50, inhibition of histamine-induced bronchoconstriction, t = 10'” value was found to be 1.68 μmol/kg.

For the origin of these results see patent US5348980A, “Enantiomers derived from (S)-2-amino-2-(3,4-dichlorobenzyl)-1-propanol, their use and method of preparation” (Institute de Recherche Jouveinal, priority 1992, dated 1994).
